From patent publication US20140287048A1, “PASTE COMPRISING NON-STEROIDAL ANTI-INFLAMMATORY DRUG” (priority 2011, published 2014) come the findings set out here.

The nature of this series: in vivo. As to conditions: po.

By bioavailability is commonly meant dose-corrected exposure relative to a reference, in per cent. With `Cc1cnc(NC(=O)C2=C(O)c3ccccc3S(=O)(=O)N2C)s1` [meloxicam], the bioavailability was approximately 98%.
